Results: patent US20260364184A1, “COMPOUND BASED ON OXOISOINDOLINYL-SUBSTITUTED TETRAHYDROPYRIMIDINE-DIONE AND USE THEREOF” (GLUETACS THERAPEUTICS (SHANGHAI) CO., LTD., priority 2023, published 2026)
Like-named read-outs stand apart in the source and are kept apart here.

Tests used:
[1] = test system: Human T lymphocytic leukemia cell line (Jurkat); test: Inhibition of Jurkat cell proliferation (CellTiter luminescent viability); type: cell-based; settings: 96 hours, read-out: Inhibitory activity (IC50, nM) on tumor cell proliferation, Jurkat
[2] = test system: Human gastric cancer cell line MGC803; test: Inhibition of MGC803 tumor cell proliferation (CellTiter luminescent viability); type: cell-based; settings: MGC803, 96 hours, read-out: Inhibitory activity (IC50, nM) on tumor cell proliferation, MGC803
Description: (§1) The tumor cells used herein were cultured in a cell culture medium listed in table 3 at 37 °C in an incubator with 5% CO2. Prior to experimentation, all cell lines used were correctly identified by STR profiling, and tested negative for mycoplasma contamination using a mycoplasma detection kit through routine screenings.
(§2) The IC50 values of the compounds of the present disclosure (including the compounds in Table 1, Table 2, and Examples 1-468) were determined using the CellTiter-Meiluncell Luminescent Cell Viability Assay Kit from Dalian Meilun Biotech Co., Ltd. The detailed procedure is as follows: Tumor cells were seeded in 96-well cell culture plates at the densities specified in Table 4. On the following day, the test compounds of the present disclosure were subjected to serial dilution. The dilution can be performed according to one of the following two methods: • (1) The first dilution method: The test compounds of the present disclosure (including the compounds in Table 1, Table 2, and Examples 1-468) were subjected to 5-fold serial dilutions starting from a highest concentration of 2000 μM, resulting in a total of 9 concentrations from high to low (2000, 400, 80, 16, 3.2, 0.64, 0.128, 0.0256, 0.00512 μM). Subsequently, 0.5 μL of the test compound dilution was transferred into the 96-well plate containing the cells, with each well containing 100 μL of cell culture medium. […] Into the 96-well plate, the diluted test compounds and corresponding detection reagents were added, resulting in final test compound concentrations of 500 nM and 10 nM, respectively. The experimental procedure is described below using the diluted 2 μM test compound as an example.
(§3) 0.5 μL of the aforementioned diluted compound of the present disclosure (including the compounds in Table 1, Table 2, and Examples 1-468) was added to the seeded cells in 100 μL of medium, yielding a final test compound concentration of 10 nM. After the cells were treated with the compounds of the present disclosure for a specified period, the cell viability assay reagent was added to the culture medium according to the kit's instructions to determine cell viability. […] All controls were treated using the same procedure as the compounds of the present disclosure. The growth inhibition curves for the compounds of the present disclosure were plotted using Prism GraphPad software, and the IC50 values were calculated therefrom.

JEKO-1 = test: Inhibition of JEKO-1 cell proliferation (CellTiter luminescent viability); type: cell-based, human; settings: JEKO-1, 96 hours, read-out: Inhibitory activity (IC50, nM) on tumor cell proliferation, JEKO-1
Description: as §1, §2, §3

[3] = test system: Human Multiple myeloma cell line (MM.1S); test: Inhibition of MM.1S cell proliferation (CellTiter luminescent viability); type: cell-based; settings: 96 hours, read-out: Inhibitory activity (IC50, nM) on tumor cell proliferation, MM.1S
Outline: (§4)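 Cells are seeded in 96-well plates, cultured at 37 °C, 5% CO2, and treated next day with 5-fold serial compound dilutions (stock series from 2000 μM; 0.5 μL into 100 μL medium). Viability is read by CellTiter-Meiluncell luminescence after the set exposure, and IC50 is taken from growth-inhibition curves.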

[4] = test system: Human large cell immunoblastic lymphoma cell line SR; test: Inhibition of SR cell proliferation (CellTiter luminescent viability); type: cell-based; settings: 96 hours; for IC50: Table IA1, IRAK4 inhibitor-based, read-out: Inhibitory activity (IC50, nM) on tumor cell proliferation, SR; for inhibition at 0.01 µM / inhibition at 0.5 µM: Homo sapiens, Table IB2, ALK inhibitor-based; for inhibition at 0.01 µM: 10 nM, read-out: Inhibition Rate at 10 nM (%); for inhibition at 0.5 µM: 500 nM, read-out: Inhibition Rate at 500 nM (%)
Outline: as §4

IRAK4 = target: T1, IRAK4 (Homo sapiens, UniProt Q9NWZ3); test: Western blot degradation of IRAK4; type: cell-based; settings: hPBMC Cell; 24 hours
T1 construct: expression of target proteins in cells; endogenous in cells
T1 sequence (Q9NWZ3 1-460): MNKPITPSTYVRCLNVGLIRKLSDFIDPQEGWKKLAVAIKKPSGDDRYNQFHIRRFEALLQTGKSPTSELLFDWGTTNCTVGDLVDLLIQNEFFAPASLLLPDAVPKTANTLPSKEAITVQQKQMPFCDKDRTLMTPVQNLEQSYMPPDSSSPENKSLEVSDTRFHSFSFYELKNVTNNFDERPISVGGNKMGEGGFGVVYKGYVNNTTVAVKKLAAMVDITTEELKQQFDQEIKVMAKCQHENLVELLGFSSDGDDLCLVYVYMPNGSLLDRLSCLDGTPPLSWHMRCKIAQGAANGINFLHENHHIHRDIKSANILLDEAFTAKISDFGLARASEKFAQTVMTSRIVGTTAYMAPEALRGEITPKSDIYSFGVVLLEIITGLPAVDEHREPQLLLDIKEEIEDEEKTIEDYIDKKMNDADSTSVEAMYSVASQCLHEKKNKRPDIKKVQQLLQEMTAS
Outline: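 Compound-treated cells harvested; lysates denatured 5 min at 95 °C, run on SDS-PAGE, blotted to NC membrane, blocked 1 h RT, probed with antibodies. Densitometry vs DMSO → DC50; target normalised to internal control → % remaining, degradation = 1 − remaining.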

[5] = test system: Human non-small cell lung cancer cell line NCI-H2228; test: Inhibition of H2228 cell proliferation (CellTiter luminescent viability); settings: Table IB2, ALK inhibitor-based, 96 hours; for inhibition at 0.01 µM: H2228, 10 nM, read-out: Inhibition Rate at 10 nM (%); for inhibition at 0.5 µM: H2228, 500 nM, read-out: Inhibition Rate at 500 nM (%)
Description: as §1, §2, §3

[6] = test system: Human myeloid monocytic leukemia cell line (MV-4-11); test: Inhibition of MV-4-11 cell proliferation (CellTiter luminescent viability); type: cell-based; settings: Homo sapiens, MV4-11, 96 hours; for inhibition at 0.01 µM: MV-4-11, 10 nM, read-out: Inhibition Rate at 10 nM (%); for inhibition at 0.5 µM: MV-4-11, 500 nM, read-out: Inhibition Rate at 500 nM (%)
Outline: as §4

[7] = test system: Human non-small cell lung cancer cell line NCI-H1975; test: Inhibition of H1975 cell proliferation (CellTiter luminescent viability); type: cell-based; settings: Table IC1, BTK inhibitor-based; H1975, 96 hours; read-out: Inhibitory activity (IC50, nM) on tumor cell proliferation, H1975
Outline: as §4

[8] = test system: Human B-Cell Lymphoma Cells (RPMI-8226); test: Inhibition of RPMI-8226 cell proliferation (CellTiter luminescent viability); type: cell-based; settings: Table IA4, IRAK4 inhibitor-based, RPMI-8226, 500 nM, 96 hours, read-out: Inhibition Rate at 500 nM (%)
[9] = as above; type: cell-based; settings: Homo sapiens; Table IA4, IRAK4 inhibitor-based; RPMI-8226, 10 nM, 96 hours; read-out: Inhibition Rate at 10 nM (%)
[10] = Table IA1, IRAK4 inhibitor-based
[11] = Table IA1, IRAK4 inhibitor-based compounds
[12] = Table IA3, IRAK4 inhibitor-based

## O=C1CCN(N2Cc3cc(CN4CCN(c5ccc6c(c5)nc(NC(=O)c5cccc(C(F)(F)F)c5)n6[C@H]5CC[C@@H](CO)CC5)CC4)ccc3C2=O)C(=O)N1 [GT-04949, N-(5-(4-((2-(2,4-dioxotetrahydropyrimidin-1(2H)-yl)-1-oxoisoindolin-5-yl)methyl)piperazin-1-yl)-1-((1s,4s)-4-(hydroxymethyl)cyclohexyl)-1H-benzo[d]imidazol-2-yl)-3-(trifluoromethyl)benzamide]
[1]; [10]
  IC50: 500 to 1000 nM
[2]; [11]
  IC50: 500 to 1000 nM
JEKO-1; [10]
  IC50: 100 to 300 nM
[3]; [10]
  IC50: 100 to 300 nM
[4]
  IC50: 100 to 300 nM

## O=C1CCN(N2Cc3cc(CN4CCC(N5CCN(c6ccc7c(c6)nc(NC(=O)c6cccc(C(F)(F)F)c6)n7[C@H]6CC[C@@H](CO)CC6)CC5)CC4)ccc3C2=O)C(=O)N1 [GT-05019, N-(5-(4-(1-((2-(2,4-dioxotetrahydropyrimidin-1(2H)-yl)-1-oxoisoindolin-5-yl)methyl)piperidin-4-yl)piperazin-1-yl)-1-((1s,4s)-4-(hydroxymethyl)cyclohexyl)-1H-benzo[d]imidazol-2-yl)-3-(trifluoromethyl)benzamide]
[1]; [10]
  IC50: 500 to 1000 nM
[2]; [11]
  IC50: 500 to 1000 nM
JEKO-1; [10]
  IC50: 500 to 1000 nM
[3]; [10]
  IC50: 500 to 1000 nM
[4]
  IC50: 500 to 1000 nM
IRAK4
  Degradation of substrate protein IRAK4 (substrate protein remaining %): A (0%≤substrate protein remaining %≤80%)

## COc1cc(N2CCC(N3CCN(Cc4ccc5c(c4)CN(N4CCC(=O)NC4=O)C5=O)CC3)CC2)ccc1Nc1ncc(Cl)c(Nc2ccccc2P(C)(C)=O)n1 [GT-08146, 1-(5-((4-(1-(4-((5-chloro-4-((2-(dimethylphosphoryl)phenyl)amino)pyrimidin-2-yl)amino)-3-methoxyphenyl)piperidin-4-yl)piperazin-1-yl)methyl)-1-oxoisoindolin-2-yl)dihydropyrimidine-2,4 (1H,3H)-dione]
[5]
  inhibition at 0.01 µM: 20 to 30%
  inhibition at 0.5 µM: 60 to 80%
[6]; Table IB2, ALK inhibitor-based
  inhibition at 0.01 µM: 15 to 20%
  inhibition at 0.5 µM: 90 to 100%
[4]
  inhibition at 0.01 µM: 45 to 55%
  inhibition at 0.5 µM: 90 to 100%

## COc1cc(N2CCC(N3CCN(Cc4ccc5c(c4)C(=O)N(N4CCC(=O)NC4=O)C5=O)CC3)CC2)ccc1Nc1ncc(Cl)c(Nc2ccccc2P(C)(C)=O)n1 [GT-08147, 5-((4-(1-(4-((5-chloro-4-((2-(dimethylphosphoryl)phenyl)amino)pyrimidin-2-yl)amino)-3-methoxyphenyl)piperidin-4-yl)piperazin-1-yl)methyl)-2-(2,4-dioxotetrahydropyrimidin-1(2H)-yl)isoindoline-1,3-dione]
[5]
  inhibition at 0.01 µM: 20 to 30%
  inhibition at 0.5 µM: 45 to 55%
[6]; Table IB2, ALK inhibitor-based
  inhibition at 0.01 µM: 20 to 30%
  inhibition at 0.5 µM: 60 to 80%
[4]
  inhibition at 0.01 µM: 10 to 15%
  inhibition at 0.5 µM: 90 to 100%

## COc1cc(N2CCC(N(C)Cc3ccc4c(c3)CN(N3CCC(=O)NC3=O)C4=O)CC2)ccc1Nc1ncc(Cl)c(Nc2ccccc2P(C)(C)=O)n1 [GT-08148, 1-(5-(((1-(4-((5-chloro-4-((2-(dimethylphosphoryl)phenyl)amino)pyrimidin-2-yl)amino)-3-methoxyphenyl)piperidin-4-yl)(methyl)amino)methyl)-1-oxoisoindolin-2-yl)dihydropyrimidine-2,4 (1H,3H)-dione]
[5]
  inhibition at 0.01 µM: 15 to 20%
  inhibition at 0.5 µM: 45 to 55%
[6]; Table IB2, ALK inhibitor-based
  inhibition at 0.01 µM: 5 to 10%
  inhibition at 0.5 µM: 60 to 80%
[4]
  inhibition at 0.01 µM: 30 to 45%
  inhibition at 0.5 µM: 90 to 100%

## C=CC(=O)N1CCC(c2ccc(C(N)=O)c(-c3ccc(Oc4ccccc4)cc3)n2)CC1 [Orelabrutinib, reference compound]
[7]
  IC50: > 10000 nM
[1]; Table IC1, BTK inhibitor-based
  IC50: > 10000 nM
[2]; Table IC1, BTK inhibitor-based
  IC50: > 10000 nM
JEKO-1; Table IC1, BTK inhibitor-based
  IC50: > 10000 nM
[3]; Table IC1, BTK inhibitor-based
  IC50: > 10000 nM

## CC[C@@H]1[C@H](F)C(=O)N[C@@H]1COc1nccc2cc(C(N)=O)c(OC)cc12 [PF06650833, PF-06650833, reference compound]
[1]; [10]
  IC50: 5000 to 10000 nM
[2]; [11]
  IC50: 5000 to 10000 nM
JEKO-1; [10]
  IC50: 500 to 1000 nM
[6]; [12]
  inhibition at 0.01 µM: 20 to 36%
  inhibition at 0.5 µM: 20 to 36%
[3]; [10]
  IC50: > 10000 nM
[4]
  IC50: 1000 to 5000 nM
[8]
  inhibition at 0.5 µM: 10 to 15%
[9]
  inhibition at 0.01 µM: 0 to 5%

## C=CC(=O)N1CCC[C@@H](n2nc(-c3ccc(Oc4ccccc4)cc3)c3c(N)ncnc32)C1 [ibrutinib, Ibrutinib, reference compound]
[7]
  IC50: 1000 to 5000 nM
[1]; Table IC1, BTK inhibitor-based
  IC50: > 10000 nM
[2]; Table IC1, BTK inhibitor-based
  IC50: > 10000 nM
JEKO-1; Table IC1, BTK inhibitor-based
  IC50: > 10000 nM
[3]; Table IC1, BTK inhibitor-based
  IC50: > 10000 nM
